Patent publication US20120324604A1, “PESTICIDAL MIXTURES CONTAINING ISOXAZOLINE DERIVATIVES AND A FUNGICIDE” (priority 2010, published 2012)

Assays:
Assay type in all cases: cell-based
[1] = test system: Fusarium culmorum; assay: Fusarium culmorum (Root Rot) growth inhibition, microtiter plate, photometric; conditions: single compound, 48 hrs, 24° C.
Protocol: Fusarium culmorum (Root Rot):
(§1) Conidia of the fungus from cryogenic storage were directly mixed into nutrient broth (potato dextrose broth). After placing a (DMSO) solution of the test compounds into a microtiter plate (96-well format) the nutrient broth containing the fungal spores was added.

[2] = test system: Botrvtis cinerea; assay: Botrvtis cinerea (Gray Mould) growth inhibition, microtiter plate, photometric; conditions: alone
Protocol: Botrvtis cinerea (Gray Mould):
as §1

[3] = test system: Mycosphaerella arachidis (syn. Cercospora arachidicola); assay: Mycosphaerella arachidis (Brown Leaf Spot of Groundnut) growth inhibition, microtiter plate, photometric; conditions: alone
Protocol: Mycosphaerella arachidis (syn. Cercospora arachidicola), Brown Leaf Spot of Groundnut (Peanut):
as §1

[4] = test system: Pythium ultimum; assay: Pythium ultimum (Damping Off) growth inhibition, microtiter plate, photometric
Protocol: Pythium ultimum (Damping Off):
Mycelial fragments of the fungus, prepared from a fresh liquid culture, were directly mixed into nutrient broth (potato dextrose broth). After placing a (DMSO) solution of the test compounds into a microtiter plate (96-well format) the nutrient broth containing the fungal spores was added.

[5] = test system: Glomerella lagenarium (syn. Colletotrichum lagenarium); assay: Glomerella lagenarium (Anthracnose of Cucurbits) growth inhibition, microtiter plate, photometric; conditions: alone
Protocol: Glomerella lagenarium (syn. Colletotrichum lagenarium), Anthracnose of Cucurbits:
as §1

[6] = test system: Rhizoctonia solani; assay: Rhizoctonia solani (Foot Rot, Damping-Off) growth inhibition, microtiter plate, photometric; conditions: applied alone
Protocol: Rhizoctonia solani (Foot Rot, Damping-Off):
Mycelial fragments of the fungus from cryogenic storage were directly mixed into nutrient broth (potato dextrose broth). After placing a (DMSO) solution of the test compounds into a microtiter plate (96-well format) the nutrient broth containing the fungal spores was added.

[7] = test system: Septoria tritici; assay: Septoria tritici (Leaf Blotch) growth inhibition, microtiter plate, photometric; conditions: alone
Protocol: Septoria tritici (Leaf Blotch):
as §1

Measured: AVERAGE DEAD IN %

Cc1cc(C2=NOC(c3cc(Cl)cc(Cl)c3)(C(F)(F)F)C2)ccc1C(=O)NC1CS(=O)(=O)C1 (racemic) [A8]
0%: [1]; 2.5 PPM AI | [1]; 5 PPM AI | [1]; 10 PPM AI | [1]; 20 PPM AI | [2]; 0.078125 ppm AI | [2]; 0.15625 ppm AI | [2]; 0.3125 ppm AI | [2]; 0.625 ppm AI | [2]; 1.25 ppm AI | [2]; 2.5 ppm AI | [2]; 5 ppm AI | [2]; 10 ppm AI | [2]; 20 ppm AI | [3]; 0.0390625 PPM AI | [3]; 0.078125 PPM AI | [3]; 0.15625 PPM AI | [3]; 0.3125 PPM AI | [3]; 0.625 PPM AI | [3]; 1.25 PPM AI | [3]; 2.5 PPM AI | [3]; 5 PPM AI | [3]; 10 PPM AI | [3]; 20 PPM AI | [4]; single compound at 0.078125 ppm AI | [4]; single compound at 0.15625 ppm AI | [4]; single compound at 0.3125 ppm AI | [4]; single compound at 0.625 ppm AI | [4]; single compound at 1.25 ppm AI | [4]; single compound at 2.5 ppm AI | [4]; single compound at 5 ppm AI | [4]; single compound at 10 ppm AI | [4]; single compound at 20 ppm AI | [5]; 0.078125 ppm AI | [5]; 0.15625 ppm AI | [5]; 0.3125 ppm AI | [5]; 0.625 ppm AI | [5]; 1.25 ppm AI | [5]; 2.5 ppm AI | [5]; 5 ppm AI | [5]; 10 ppm AI | [5]; 20 ppm AI | [6]; 0.0390625 ppm AI | [6]; 0.078125 ppm AI | [6]; 0.15625 ppm AI | [6]; 0.3125 ppm AI | [6]; 0.625 ppm AI | [6]; 1.25 ppm AI | [6]; 2.5 ppm AI | [6]; 5 ppm AI | [6]; 10 ppm AI | [6]; 20 ppm AI | [7]; 0.0390625 ppm AI | [7]; 0.078125 ppm AI | [7]; 0.15625 ppm AI | [7]; 0.3125 ppm AI | [7]; 0.625 ppm AI | [7]; 1.25 ppm AI | [7]; 2.5 ppm AI | [7]; 5 ppm AI | [7]; 10 ppm AI | [7]; 20 ppm AI
